Results published in the CheMixHub drug solubility set.

Assay: xn = mol fraction of the nth substance listed, in the solute-free solvent

Oc1ccc(Cl)c2cccnc12 + CCCOC(C)=O + CCO
solubility (g/100 g solution)
Settings	278.15 K	283.15 K	288.15 K	293.15 K	298.15 K	303.15 K	308.15 K	313.15 K	318.15 K	323.15 K
x2 = 0.1013	1.48	1.74	2.02	2.4	2.82	3.28	3.89	4.6	5.52	6.43
x2 = 0.2214	1.97	2.29	2.69	3.2	3.76	4.43	5.18	6.1	7.46	8.81
x2 = 0.4035	2.41	2.81	3.3	3.87	4.53	5.41	6.43	7.55	8.8	10.5
x2 = 0.6434	2.74	3.26	3.83	4.52	5.3	6.25	7.27	8.56	9.99	11.7

CCCCOc1ccc(C(=O)CCN2CCCCC2)cc1.Cl + CCO + CCCCCC
solubility (g/100 g solution)
Settings	278.15 K	283.15 K	288.15 K	293.15 K	298.15 K	303.15 K	308.15 K	313.15 K	318.15 K	323.15 K
x2 = 0.1	2.56	2.95	3.35	3.75	4.22	4.75	5.33	5.97	6.73	7.53
x2 = 0.2	5.09	5.71	6.4	7.2	8.01	8.91	9.95	11.1	12.4	13.8
x2 = 0.3	7.84	8.72	9.72	10.8	12	13.4	14.9	16.6	18.4	20.3
x2 = 0.4	10.6	11.8	13.1	14.6	16.2	17.9	19.8	21.8	24	26.4
x2 = 0.5	13.7	15.2	16.8	18.6	20.5	22.6	24.8	27.3	29.9	32.6
x2 = 0.6	16.8	18.8	20.6	22.7	25	27.3	29.9	32.6	35.5	38.5
x2 = 0.7	20.3	22.4	24.6	27	29.4	32	35	37.9	41	44.1
x2 = 0.8	23.9	26.3	28.7	31.4	34.1	36.8	39.8	43	46.3	49.5
x2 = 0.9	27.7	30.4	33	35.8	38.8	41.8	45	48.3	51.6	54.9
